Assays:
[1] = tested on: PD patients; conditions: at 6 months; cited from earlier work
[2] = tested on: R6/2 HD mice; conditions: 10-day oral treatment, 9-week mice; cited from earlier work
[3] = tested on: human dopaminergic neurons (iCell DopaNeurons); test: MPP+-induced neurotoxicity: neurite outgrowth (neurite length, branch points) on iCell DopaNeurons; type: cell-based
Text: MPP+(1-methyl-4-phenylpyridinium) is a known neurotoxin which acts by interfering with oxidative phosphorylation in mitochondria by inhibiting complex I, a protein in the membrane of mitochondria in dopaminergic neurons in the substantia nigra.(94) The inhibition of mitochondrial function leads to the depletion of ATP and eventual cell death. MPP+ ultimately causes Parkinsonism in primates by killing certain dopamine-producing neurons in the substantia nigra.
iCell DOPA neurons are neural floor plate-derived midbrain dopaminergic neurons generated from human induced pluripotent stem cells (iPSCs). Dopaminergic neurons, specifically those located in the floor plate-derived midbrain are implicated in neurological disorders such as Parkinson's disease, MSA and DLBD among others. […] The iCellDopa neurons were supplied from FUJIFILM Cellular Dynamics.
(§1) Procedure. iCell DOPA neurons were thawed and cultured following the provider's instructions in Brainphys medium+provided supplements+1% N2 supplement (Stemcell Technologies)+penicillin/streptomycin+Laminin. They were plated at 20000 cells per well of a 384 well plate (pre-coated with poly-D-lysine and Laminin) in 70 μL of growth medium. Cells were incubated at 37° ° C./5% CO2 in a humidified cell culture incubator. Half of the culture medium was changed twice a week.
(§2) MPP+-induced neurotoxicity: 24 hours after neuronal plating, half of the medium was removed and the test compounds were applied with MPP+ treatment, both concentrated at 4×, were added to the wells. For each well, five aliquots were added, corresponding columns A-E in Table 3. In each row, either the compound indicated dissolved in its vehicle noted in Table 2 was added, or only a vehicle was added as indicated. Column E is an indicator of whether MPP+ was added. If not, only the medium was added.
(§3) For the evaluation of conditions 8, 10,12, 22, 24, Neurite outgrowth was followed for subsequent 48 hours using an Incucyte Zoom platform with one phase contrast image every 4 hours, using a 20× objective. After 48 hours, the medium containing test compounds and MPP+ was removed and replaced by fresh medium containing a fluorescent cytolysis marker (red fluorescence) and a live cell marker (green fluorescence). For the evaluation of conditions 10, 12, 24, 38, 40, 51-53, Neurite outgrowth was followed similarly for subsequent 72 hours after MPP+ was added.
Assay endpoints and data analysis. Phase contrast images were analyzed at each time point to determine the neurite length and number of branch points per mm^2. Kinetic data was plotted and kinetics were normalized by subtracting the value of the first data point (at time of treatment), allowing to measure changes in neurite outgrowth only from the onset of the treatment, starting at zero. Area Under Curve (AUC) of kinetic data was obtained and used for plotting compound's effects and perform statistical analyzes.

[4] = tested on: human dopaminergic neurons (iCell DopaNeurons); test: MPP+-induced neurotoxicity: cytolysis of iCell DopaNeurons; type: cell-based; conditions: for Cytolysis, Mean ± S.D.: with MPP+ 100 μM
Experimental: Three different measurements were made in the experiments. Neurite length in mm was measured, which is a measure of increase in dendril length of neurons. […] Secondly, neurite branching was measured. […] Thirdly, cytolysis of the cells was measured. […] Experimental conditions were measured relative to the results of healthy cells in the studies.
as §1, §2, §3
Data was normalized to control conditions as there is basal cytolysis in the cell culture after thawing.

[5] = tested on: SOD(G93A) mice; conditions: treatment from 75 days; cited from earlier work
[6] = tested on: patients with rapidly progressive SOD1 ALS; conditions: not statistically significant; cited from earlier work
[7] = tested on: cortical neurons; conditions: 100 μM for 12 h; cited from earlier work
[8] = tested on: APP/PS1 mice; conditions: 6-month treatment with 0.4% of TUDCA in diet; cited from earlier work
[9] = tested on: IL-6 mediated inflammation in microglial cells; test: LPS/ATP-induced neuroinflammation in microglia: IL-6 secretion (Luminex); type: cell-based, human
Text: (§4) In addition to the studies discussed above assessing activity of combinations of drugs on MPP+-induced neurodegeneration toxicity on human dopaminergic neurons as well as on a human iPSC cell line harboring a triplication mutation in alpha-synuclein gene, and measuring neuronal growth, neurite branching and neurofilament heavy chain, we also assessed combinations of drugs in reducing lipopolysaccharide (LPS, from E. coli)-induced neuroinflammation in human microglia cells.
(§5) Lipopolysaccharides are important outer membrane components of gram-negative bacteria such as E. coli and Salmonella. They are large amphipathic glycoconjugates that typically consist of a lipid domain (hydrophobic) attached to a core oligosaccharide and a distal polysaccharide. LPS binds to Toll-like receptor 4 (TLR4) and activates microglia(98) which in turn increases secretion of pro-inflammatory cytokines such as interleukin-6 (IL-6), tumor necrosis factor-α (TNF-α), and CXCL1/GROα.
(§6) Microglia cells were obtained from an iCell® Microglia kit, 01279 (Catalogue N^o R1131) from FUJIFILM Cellular Dynamics. We followed the manufacturer's protocol for activation of the microglial cells with LPS/ATP to subsequently measure the effect of the study drugs on pro-inflammatory cytokines IL-6, TNF-α and CXCL1/GROα.
(§7) All cell culture procedures were performed in aseptic conditions, under a laminar flow hood. Microglia were thawed and cultured following the provider's instructions. The microglia were plated at 50,000 cells per well of a Corning Primaria 96 well plate (Ref N^o 353872) in 100 μL of growth medium. Cells were incubated at 37° C./5% CO2 in a humidified cell culture incubator.
(§8) Three days after cell plating, the test or reference substances (25 μL of solutions at 5×) were applied 1 hour before LPS and ATP stimulation.
(§9) One hour later, 12.5 μL of test or reference substances were added again at 2× concentrated followed by 12.5 μL of LPS at 12× concentration. Fifty microliters of ATP were introduced at 4× concentration, 5 h 30 min after incubation with LPS.
(§10) Six hours after LPS incubation, the supernatant of each well was collected and centrifugated at 1000 g for 10 minutes to remove the cells and debris.
(§11) Fifty microliters of supernatant from NT and LPS+ATP-treated wells were used to determine cytokine secretion (IL-6, TNF-α, CXCL1/GROα) by Luminex platform according to the provider's instructions. Samples were diluted prior to the assay to fit within the standard range if needed. Three wells were tested per each condition (Table 11). Cytokines levels in the supernatant were expressed in pg/mL. The data was analyzed using a One-Way ANOVA followed by Bonferroni test.

[10] = tested on: CXCL1/GROα mediated neuroinflammation in microglial cells; test: LPS/ATP-induced neuroinflammation in microglia: CXCL1/GROα secretion (Luminex); type: cell-based, human
Text: as §4, §5, §6, §7, §8, §9, §10, §11

[11] = tested on: TNF-α mediated neuroinflammation in microglial cells; test: LPS/ATP-induced neuroinflammation in microglia: TNF-α secretion (Luminex); type: cell-based, human
Text: as §4, §5, §6, §7, §8, §9, §10, §11

[12] = tested on: R6/2 transgenic mice; conditions: 500 mg/kg; cited from earlier work
[13] = tested on: riluzole-treated patients; conditions: cited from earlier work
[14] = tested on: MPTP mouse model; conditions: pre-treatment 50 mg/kg for 3 days; cited from earlier work
[15] = tested on: iPSC-derived dopaminergic (DA) neurons harboring triplication of the α-synuclein locus; test: α-Synuclein triplication cell line: neurofilament heavy chain signal intensity; type: cell-based, human; conditions: normalized to Hoechst signal; three months treatment; PBA 500 μM, TUDCA 50 μM, EXD 100 nM
Experimental: We used 12 replicas for each experimental condition and 16 replicas for control (untreated cells). […] Cells were washed three times with warm phosphate buffered saline (PBS) and imaged immediately at 20× magnification on an imageXpress Micro confocal at 37° C. and 5% CO2.
Following imaging, cells were immediately fixed with 4% paraformaldehyde for 30 minutes at room temperature, washed three times with PBS, permeabilized with 0.2% Triton X-100 for 30 minutes, blocked with Odyssey Blocking Buffer for 60 minutes, and incubated overnight at 4° C. with primary antibodies, neurofilament (1:1000, Synaptic Systems 171 002) and LB509 (1:100, Abcam ab27766). Cells were washed 3× with 0.1% Tween-20 in PBS and incubated with Alexa Fluor Goat Anti-Rabbit 790 (1:1000) and Goat Anti-Mouse 647 (1:1000) for 1 hour at RT, before washing 3× with 0.1% Tween-20 in PBS and imaging with Sapphire Biomolecular Imager. Neurofilament heavy chain signal intensity was normalized to fixed Hoechst signal measured with Spectra Gemini plate reader (ex=350 nm, em=461 nm), using Hoechst 33342 nucleic acid stain from Invitrogen according to the manufacturer's instructions. Neurofilaments (NF) are located mostly in axons and indicate roughly the content of neurites. If neurodegeneration is halted or reversed, NF signal increases because it correlates with the number and/or length of neurites in the well.

[16] = LPS (100 ng/mL) + ATP (5 mM), six hours after LPS
[17] = compared with […] distilled water in presence of LPS and ATP

SMILES: Cc1c(O)c(=O)ccn1C [DFP, Deferiprone]
- UPDRS for motor skills, early start group [1]: 21.6±8
- Motor endurance [2]: improved motor endurance
- Protective effect on neurite length and branching (in words) ([3]; MPP+ 100 μM): substantially inferior to condition 40
- Neurite length - Baseline-corrected AUC (0-72 h), Mean ([3]; Table 6.1, plate 2, with MPP+ 100 μM): 874.5 mm/mm^2
- Number of branch points per mm^2 - Baseline-corrected AUC (0-72 h), Mean ([3]; Table 6.2, plate 2, with MPP+ 100 μM): 24282.5 per mm^2
- Neurite length, Mean ± S.D. ([3]; Table 8.1, plate 2, with MPP+ 100 μM, 72 hours): 1303.0 ± 378.7 mm/mm^2
- Neurite Branching, Mean ± S.D. ([3]; Table 8.2, plate 2, with MPP+ 100 μM, 72 hours): 51711.3 ± 15178.4 per mm^2
- Cytolysis, Mean ± S.D. ([4]; Table 9.2, plate 2): 71.91 ± 1.28%

SMILES: [O-][n+]1cccc(/C(Cl)=N/OC[C@H](O)CN2CCCCC2)c1 [arimoclomol, Arimoclomol]
- Lifespan [5]: significantly increased the lifespan
- Survival, hazard ratio [6]: 0.77

SMILES: C[C@H](CCC(=O)NCCS(=O)(=O)O)[C@H]1CC[C@H]2[C@@H]3[C@@H](O)C[C@@H]4C[C@H](O)CC[C@]4(C)[C@H]3CC[C@]12C [TUDCA, Tauroursodeoxycholic acid]
- Aβ peptide-associated apoptosis [7]: significantly decrease Aβ peptide-associated apoptosis
- Aβ plaque accumulation in the brain [8]: prevented Aβ plaque accumulation in the brain
- IL-6 in supernatant, Mean ± S.D. [9, 16]: 437.81 ± 24.71 pg/mL
- IL-6 in supernatant, Replicate 1 [9, 16]: 410.97 pg/mL
- IL-6 in supernatant, Replicate 2 [9, 16]: 442.87 pg/mL
- IL-6 in supernatant, Replicate 3 [9, 16]: 459.60 pg/mL
- Decrease of IL-6 concentration [9, 17]: 37%
- CXCL1/GROα in supernatant, Mean ± S.D. [10, 16]: 424.96 ± 48.95 pg/mL
- CXCL1/GROα in supernatant, Replicate 1 [10, 16]: 447.19 pg/mL
- CXCL1/GROα in supernatant, Replicate 2 [10, 16]: 368.84 pg/mL
- CXCL1/GROα in supernatant, Replicate 3 [10, 16]: 458.86 pg/mL
- Decrease of GROα concentration [10, 17]: 32%
- TNF-α in supernatant, Mean ± S.D. [11, 16]: 28.57 ± 0.58 pg/mL
- TNF-α in supernatant, Replicate 1 [11, 16]: 29.01 pg/mL
- TNF-α in supernatant, Replicate 2 [11, 16]: 27.92 pg/mL
- TNF-α in supernatant, Replicate 3 [11, 16]: 28.79 pg/mL
- Decrease of TNF-α concentration [11, 17]: 52%
- Neuroprotection [12]: neuroprotective effects
- Baseline-adjusted ALSFRS-R at study end vs placebo ([13]; P=0.007): significantly higher
- Tolerability ([13]; human, in vivo): well tolerated
- Proportion of responders ([13]; placebo 43%, P=0.021): 87%
- Increase of neurite length compared with MPP+ alone (control/MPP+) ([3]; AUC, MPP+ 100 μM): 43%
- Increase of number of branch points compared with MPP+ alone (control/MPP+) ([3]; AUC, MPP+ 100 μM): 60%
- Neurite length, Mean ([3]; Table 7.1, plate 1, with MPP+ 100 μM, 72 hours): 1825.9 mm/mm^2
- Neurite Branching, Mean ± S.D. ([3]; Table 7.2, plate 1, with MPP+ 100 μM, 72 hours): 58836.3 ± 9596.4 per mm^2
- Neurodegeneration of nigral dopaminergic neurons caused by MPTP [14]: significantly reduced neurodegeneration of the nigral dopaminergic neurons
- Neurofilament Heavy Chain signal intensity, mean [15]: 1.313
- Cytolysis, Mean ± S.D. ([4]; Table 9.1, plate 1): 70.69 ± 2.02%
- Reduction of cytolysis (cell death) (in words) ([4]; vs Control/MPP+): did not reduce cytolysis with statistical significance

From patent US20240252594A1, “COMBINATION THERAPY FOR NEURODEGENERATIVE DISEASES” (ALETA NEUROSCIENCE, LLC, priority 2021, published 2024)
